In ChEMBL document CHEMBL1148258, “Synthesis of OSW-1 analogs with modified side chains and their antitumor activities” (Bioorg Med Chem Lett, 2004) one finds IC50 data, which are given here for six compounds.

Usually IC50 stands for the concentration that inhibits the measured activity by half.

The first test relates to BEL-7404 tumor cell line. Nature of the test: In vitro antitumor activity of compound against 7404 cell line (human liver carcinoma cells). Format: functional, cell-based. The following applies: Homo sapiens, BEL-7404.
In turn, `COc1ccc(C(=O)OC2C(OC3C(O)COC(O[C@H]4CC5C6CC=C7C[C@@H](O)CC[C@]7(C)C6CC([C@H](C)C(=O)CCC(C)C)[C@]5(C)[C@@H]4O)C3OC(C)=O)OCC(O)C2O)cc1` (stereo partly drawn) yielded a 50% inhibitory concentration (IC50) of 0.1 µM.

`COc1ccc(C(=O)OC2C(OC3C(O)COC(O[C@H]4CC5C6CC=C7C[C@@H](O)CC[C@]7(C)C6CC([C@H](C)CCCC(C)C)[C@]5(C)[C@@H]4O)C3OC(C)=O)OCC(O)C2O)cc1` (stereo partly drawn) returned an IC50 of 0.063 µM.

With `COc1ccc(C(=O)OC2C(OC3C(O)COC(O[C@H]4CC5C6CC=C7C[C@@H](O)CC[C@]7(C)C6CC([C@H](C)C(O)CCC(C)C)[C@]5(C)[C@@H]4O)C3OC(C)=O)OCC(O)C2O)cc1` (stereo partly drawn), it took 1.86 µM to reach half-maximal inhibition (IC50).

Compound `COc1ccc(C(=O)OC2C(OC3C(O)COC(O[C@H]4CC5C6CC=C7C[C@@H](O)CC[C@]7(C)C6CC([C@H](C)C(C)=O)[C@]5(C)[C@@H]4O)C3OC(C)=O)OCC(O)C2O)cc1` (stereo partly drawn) came in with an IC50 of 2.9 µM.

For `CCCC(=O)[C@@H](C)C1CC2C(CC=C3C[C@@H](O)CC[C@@]32C)C2C[C@H](OC3OCC(O)C(OC4OCC(O)C(O)C4OC(=O)c4ccc(OC)cc4)C3OC(C)=O)[C@@H](O)[C@]21C` (stereo partly drawn), the IC50 was found to be 0.032 µM.

The test is the same for the next values; noted with them: bel-7404.
With CISPLATIN, the IC50 amounted to 8.37 µM.

The subject of a further test is MCF7. Kind of test: In vitro antitumor activity of compound against MCF-7 cell line (human breast cancer cells). Type of test: functional, cell-based. The following applies: Homo sapiens, MCF7.
For the compound `COc1ccc(C(=O)OC2C(OC3C(O)COC(O[C@H]4CC5C6CC=C7C[C@@H](O)CC[C@]7(C)C6CC([C@H](C)C(=O)CCC(C)C)[C@]5(C)[C@@H]4O)C3OC(C)=O)OCC(O)C2O)cc1` (stereo partly drawn), the IC50 is 0.27 µM.

Consider `COc1ccc(C(=O)OC2C(OC3C(O)COC(O[C@H]4CC5C6CC=C7C[C@@H](O)CC[C@]7(C)C6CC([C@H](C)CCCC(C)C)[C@]5(C)[C@@H]4O)C3OC(C)=O)OCC(O)C2O)cc1` (stereo partly drawn), for which the IC50 was found to be 0.06 µM.

`COc1ccc(C(=O)OC2C(OC3C(O)COC(O[C@H]4CC5C6CC=C7C[C@@H](O)CC[C@]7(C)C6CC([C@H](C)C(O)CCC(C)C)[C@]5(C)[C@@H]4O)C3OC(C)=O)OCC(O)C2O)cc1` (stereo partly drawn) gave an IC50 of 1.79 µM.

In the case of `COc1ccc(C(=O)OC2C(OC3C(O)COC(O[C@H]4CC5C6CC=C7C[C@@H](O)CC[C@]7(C)C6CC([C@H](C)C(C)=O)[C@]5(C)[C@@H]4O)C3OC(C)=O)OCC(O)C2O)cc1` (stereo partly drawn), inhibition was half-maximal at 6.61 µM (IC50).

As to `CCCC(=O)[C@@H](C)C1CC2C(CC=C3C[C@@H](O)CC[C@@]32C)C2C[C@H](OC3OCC(O)C(OC4OCC(O)C(O)C4OC(=O)c4ccc(OC)cc4)C3OC(C)=O)[C@@H](O)[C@]21C` (stereo partly drawn), inhibition was half-maximal at 0.02 µM (IC50).

The same test, now with this note: mcf7.
CISPLATIN displayed an IC50 of 18.7 µM.

The next test relates to AGS. Nature of the test: In vitro antitumor activity of compound against AGS cell line (human stomach cancer cells). Particulars: Homo sapiens, AGS. Format: functional, cell-based.
Consider `COc1ccc(C(=O)OC2C(OC3C(O)COC(O[C@H]4CC5C6CC=C7C[C@@H](O)CC[C@]7(C)C6CC([C@H](C)C(=O)CCC(C)C)[C@]5(C)[C@@H]4O)C3OC(C)=O)OCC(O)C2O)cc1` (stereo partly drawn), for which inhibition was half-maximal at 1.42 µM (IC50).

`COc1ccc(C(=O)OC2C(OC3C(O)COC(O[C@H]4CC5C6CC=C7C[C@@H](O)CC[C@]7(C)C6CC([C@H](C)CCCC(C)C)[C@]5(C)[C@@H]4O)C3OC(C)=O)OCC(O)C2O)cc1` (stereo partly drawn) displayed an IC50 of 1.38 µM.

As to `COc1ccc(C(=O)OC2C(OC3C(O)COC(O[C@H]4CC5C6CC=C7C[C@@H](O)CC[C@]7(C)C6CC([C@H](C)C(O)CCC(C)C)[C@]5(C)[C@@H]4O)C3OC(C)=O)OCC(O)C2O)cc1` (stereo partly drawn), the IC50 stood at 7.26 µM.

For the compound `COc1ccc(C(=O)OC2C(OC3C(O)COC(O[C@H]4CC5C6CC=C7C[C@@H](O)CC[C@]7(C)C6CC([C@H](C)C(C)=O)[C@]5(C)[C@@H]4O)C3OC(C)=O)OCC(O)C2O)cc1` (stereo partly drawn), half-maximal inhibition (IC50) required 6.98 µM.

`CCCC(=O)[C@@H](C)C1CC2C(CC=C3C[C@@H](O)CC[C@@]32C)C2C[C@H](OC3OCC(O)C(OC4OCC(O)C(O)C4OC(=O)c4ccc(OC)cc4)C3OC(C)=O)[C@@H](O)[C@]21C` (stereo partly drawn): half-maximal inhibition (IC50) was put at 1.92 µM.

Still in this test, the particulars now being: ags.
Consider CISPLATIN, for which the IC50 amounted to 24.1 µM.
